The values below come from patent US10736343B2, “Antimicrobial formulations with pelargonic acid” (ANITOX CORPORATION, priority 2011, dated 2020).

Values after ≈ are worked out from the molar mass of the structure shown. Read-outs that look alike come from different tables or passages of the source.

The subject of series [1] is Staphylococcus aureus, E. coli and Salmonella typhimurium. The following applies: cited from earlier work.
Series [2] concerns Salmonella typhimurium (ATCC #14028). Put plainly: Salmonella typhimurium suspension in test tubes with formaldehyde and/or pelargonic acid, plate count (Example 1). In kind it is cell-based. As for the experimental part: Solutions were vortexed for 10 seconds to ensure mixing. There were three replicate tubes per treatment. A suspension of Salmonella typhimurium (10^3 cfu/ml, ATCC #14028) was added to three test tubes containing each formulation. The solutions were vortexed, incubated at room temperature for 24 hours plated on SMA (Standard Methods Agar) for 24 hours before counting Salmonella colonies.

The test system is the same in series [3]. Put plainly: Salmonella typhimurium suspension in test tubes with formaldehyde and/or pelargonic acid, plate count (Example 2). In kind it is cell-based. The protocol: Solutions were vortexed for 10 seconds to ensure mixing. There were three replicate tubes per treatment. A suspension of Salmonella typhimurium (10^3 cfu/ml, ATCC #14028) was added to three test tubes containing each formulation. The solutions were vortexed, incubated at room temperature for 24 hours and plated on SMA (Standard Methods Agar) for 24 hours before counting Salmonella colonies.

Another series concerns parasite C. irritans. Conditions: cited from earlier work.
For series [4], the system named is Salmonella typhimurium. Put plainly: In vitro test of five formulations against Salmonella typhimurium suspension (Example 3). The format is cell-based. Conditions: pelargonic acid at 10% of formula. The protocol:
Formulations were added to test tubes at concentrations of 0.01% and 0.05%. Solutions were vortexed for 10 seconds to ensure mixing. There were three replicate tubes per treatment.
A suspension of Salmonella typhimurium (10^4 cfu/ml) was added to three test tubes containing the different dilutions of each formulation. The tubes were vortexed, incubated at room temperature for 24 hours and then the solution was plated on SMA (Standard Methods Agar) for 48 hours before counting Salmonella colonies.

The test system of series [5] is Salmonella typhimurium. Put plainly: Residual activity in treated poultry mash feed contaminated after treatment (Example 6). The format is cell-based. The following applies: for % Reduction at 13 Days: feed contaminated 13 days post treatment. The protocol:
Formula 1 from Example 3 composed of 25% trans-2-hexenal, 5% pelargonic acid and 70% aqueous organic acids was compared to trans-2-hexenal for residual activity in feed. Poultry mash feed was treated with 0.1, 0.25, 0.5 or 1.0 kg/ton of hexenal compared to 1 kg/ton of the hexenal: pelargonic acid combination product (0.25 kg/ton of hexenal), At 1, 6 and 13 days post treatment, feed was contaminated with a meat and bone meal inoculum of Salmonella typhimurium at a level of 10^3 cfu/g of feed. After 24 hours, 10 g of subsamples of the untreated and treated feed were suspended in 90 ml Butterfield buffer. Dilutions were plated on XLT-4 agar and incubated at 37° C. for 48 hours before counting Salmonella colonies.

In series [6] the test system is Salmonella typhimurium. Put plainly: In vitro test of aldehyde / hexenal / pelargonic acid formulations against Salmonella typhimurium suspension (Example 7). In kind it is cell-based. Conditions: for ability to replace trans-2-hexenal (in words): At both 5% and 10% pelargonic acid. The protocol:
Seven aldehydes (butyraldehyde, citral, undecylenic aldehyde, decadienal, cinnamaldehyde, decanal and furfural) were blended with trans-2-hexenal, pelargonic acid, propionic acid and acetic acid as presented in Table 9. A 20% (X−1) and a 25% (F18) hexanal: organic acid product were included as positive controls. […] Solutions were vortexed for 10 seconds to uniformly mix the solution. There were three replicate tubes per treatment. […] The solutions were vortexed, incubated at room temperature for 24 hours and then plated on XLT-4 agar for 48 hours before counting Salmonella colonies.

In a further series the test system is M. gypseum. The following applies: cited from earlier work.
The test system of the next series is yeast (10^5 CFU/bottle). Conditions: cited from earlier work.
The conditions of series [7]: rat, cited from earlier work.
Another series deals with P. syringae pathovars. The following applies: cited from earlier work.
The test system of series [8] is apricots, peaches and nectarines. The following applies: cited from earlier work.
The next series concerns E. coli. Conditions: cited from earlier work.
In a further series the test system is Phoma mycelium. Conditions: cited from earlier work.
In a further series the test system is Penicillium expansum. Conditions: cited from earlier work.
Series [9] has as its system A. flavus, P. notatum, A. alternate, F. oxysporum, Cladosporium species, B. subtilis and A. tumerfaciens. Conditions: cited from earlier work.
For series [10], the system named is B. cereus, S. typhimurium, V. parahaemolyticus, L. monocytogenes, S. aureus and E. coli O157:H7. The following applies: cited from earlier work.
The next series deals with pears and apples. Conditions: 12.5 μL/L, twenty four hours to seven days exposure; cited from earlier work.
Series [11] deals with Helicobacter pylori and S. cholerasuis. Conditions: cited from earlier work.
The conditions of series [12]: rat, in vivo; cited from earlier work.
The subject of another series is mold. The following applies: 0.86 or 1.71 mmol per 1.1 L container for 2 weeks; cited from earlier work.
Setting [13] is: formaldehyde 0.00312 %, pelargonic acid 0 %.
Where [14] appears, read: formaldehyde 0.00625 %, pelargonic acid 0 %.
The mark [15] stands for this setting: formaldehyde 0.0125 %, pelargonic acid 0 %.
The mark [16] stands for this setting: formaldehyde 0.025 %, pelargonic acid 0 %.
[17] abbreviates: formaldehyde 0 %, pelargonic acid 0.00125 %.
Setting [18] is: formaldehyde 0 %, pelargonic acid 0.0025 %.
Setting [19] is: At 5% pelargonic acid, aldehyde by itself.
Where [20] appears, read: At 10% pelargonic acid, 20% aldehyde.

On to `CC/C=C/CC=O` [(3E)-hexenal], for which the “level effective in controlling” value in series [1] was 3 to 30 µg/mL.

On to `C=O` [Formaldehyde], for which the Salmonella % reduction in series [2] (setting [13]) was 17.3%; in series [2] (setting [14]), 39.3%; in [2] (setting [15]) it was 59.0%; in [2] (setting [16]), 90.8%; in [3] (setting [13]), 17.7%; in [3] (setting [14]) it was 41.0%. Further, the Salmonella % reduction in series [3] (setting [15]) was 50.5%; in series [3] (setting [16]) it was 88.3%.

On to `CCCCCCCCC(=O)O` [Pelargonic acid, Pelargonic acid (nonanoic acid)], for which the “control of parasite growth (in words)” value with parasite C. irritans is “effective in controlling the growth”. Moreover, in the series on Salmonella typhimurium [4], the “effect on efficacy of trans-2-hexenal (in words)” value is recorded as “increases the efficacy of trans-2-hexenal”. The “bactericidal effect (in words)” value in series [2] (at the highest dose tested) was “not bactericidal”. Further, the Salmonella % reduction in [2] (formaldehyde 0 %, pelargonic acid 0.000312 %) was determined as 0%; in [2] (formaldehyde 0 %, pelargonic acid 0.000625 %) it was 0%; in series [2] (setting [17]), 0%; in series [2] (setting [18]), 0%; in series [3] (setting [17]), 2.1%; in [3] (setting [18]) it was 8.8%. For the same compound, the Salmonella % reduction in [3] (formaldehyde 0 %, pelargonic acid 0.005 %) is on record as 96.5%; in [3] (formaldehyde 0 %, pelargonic acid 0.01 %), 100%. The “effect on the effectiveness of formaldehyde (in words)” value in [2] (pelargonic acid at 0.00125 and 0.0025%) is recorded as “did appear to increase the effectiveness of formaldehyde”. The “effectiveness against Salmonella versus trans-2-hexenal alone (in words)” value in the series on Salmonella typhimurium [5] (addition of pelargonic acid (5%) to trans-2-hexenal) was “better effectiveness against Salmonella than trans-2-hexenal by itself”. Also, in the series with Salmonella typhimurium [6], the “potentiation of aldehyde efficacy (in words)” value is “potentiates the efficacy of each individual aldehyde and aldehyde combination”. For the same compound, the “effect on bactericidal efficacy of formaldehyde (in words)” value in series [3] (pelargonic acid 0.00125% and 0.0025% mixed with formaldehyde) is reported as “the bactericidal efficacy of formaldehyde was improved”. Moreover, in series [3] (pelargonic acid alone at 0.00125% and 0.0025%), the “impact on Salmonella reduction (in words)” value is “did not have a significant impact on Salmonella reduction”. The entries for the “minimum inhibitory concentration (MIC)” value in the series with M. gypseum (in liquid media) and in the series on M. gypseum (on solid media) were 50 µg/mL (≈ 316 µM) and 40 µg/mL (≈ 253 µM), respectively.

Turning to `CCCC=O` [butyraldehyde], the “effectiveness compared with trans-2-hexenal (in words)” value with Salmonella typhimurium [6] (setting [19]) was “not as effective as trans-2-hexenal”; in the series on Salmonella typhimurium [6] (setting [20]), “as effective as 20% trans-2-hexenal”. In addition, the “ability to replace trans-2-hexenal (in words)” value (“ability” for short) in the series with Salmonella typhimurium [6] is given as “can partially replace trans-2-hexenal”.

As for `CCCCCCCCCC(=O)O` [capric acid], the “minimum inhibitory concentration (MIC)” value is 75 µg/mL (≈ 435 µM) in the series with M. gypseum (in liquid media) and 20 µg/mL (≈ 116 µM) with M. gypseum (on solid media).

Regarding `O=CC=Cc1ccccc1` [cinnamaldehyde], the “ability” value with Salmonella typhimurium [6] was “can replace trans-2-hexenal”.

Regarding `CC(C)=CCCC(C)=CC=O` [citral], in the series with yeast (10^5 CFU/bottle), the “concentration equivalent to 25 ppm trans-2-hexenal and thermal treatment” value is listed as 100-120 ppm. Moreover, the figures for the “effectiveness compared with trans-2-hexenal (in words)” value with Salmonella typhimurium [6] (setting [19]) and with Salmonella typhimurium [6] (setting [20]) were “not as effective as trans-2-hexenal” and “as effective as 20% trans-2-hexenal”, respectively. In the series on Salmonella typhimurium [6], the “ability” value was “can partially replace trans-2-hexenal”.

Consider `CCCCCC=CC=CC=O` [decadienal aldehyde, 2-4-decadienal], for which the “ability” value in the series on Salmonella typhimurium [6] is on record as “can replace trans-2-hexenal”.

In the case of `CCCCCCCCCC=O` [decanal], the “ability” value in the series on Salmonella typhimurium [6] is “can replace trans-2-hexenal”.

Consider `O=Cc1ccco1` [furfural], for which, in the series on Salmonella typhimurium [6], the “ability” value was “can replace trans-2-hexenal”.

Consider `CCC/C=C/C=O` [trans-2-hexenal], for which the “body weight and intake (in words)” value in [7] (4000 ppm in diet, 13 wk) was “reduction in body weight and intake, but it was not significant”. For the same compound, in series [7] (dietary levels 260, 640, 1600 or 4000 ppm for 13 wk), the “hematological parameters or organ weights (in words)” value is on record as “did not induce any changes in hematological parameters or organ weights”. Besides, the entries for the “concentration that completely inhibited proliferation” value with P. syringae pathovars and in the series on E. coli were 570 ug/L of air and 930 micrograms/L of air, respectively. Besides, the “phytotoxicity (in words)” value in [8] (apricots) is given as “not phytotoxic”; in [8] (peaches and nectarines at 40 μL/L) it was “phytotoxic”. Further, the “concentration necessary to stabilize beverages” value in the series with yeast (10^5 CFU/bottle) (beverages not thermally treated) is on record as 35 ppm. In addition, the “concentration controlling yeast in beverages” value in the series with yeast (10^5 CFU/bottle) (with thermal treatment (56° C. for 20 min)) was 25 ppm. The “concentration effective at inhibiting growth” value in the series on Phoma mycelium is 250 µg/mL. Further, the “concentration effective on controlling” value in the series on Penicillium expansum was 12.5 μL/L. The “concentration that completely inhibited the growth” value in [9] was 8 ng/L air. The “% Reduction at 13 Days” value turned out to be 0% with Salmonella typhimurium [5] (0.10 kg/ton hexenal), 0% with Salmonella typhimurium [5] (0.25 kg/ton hexenal), 77.4% with Salmonella typhimurium [5] (0.50 kg/ton hexenal) and 87.1% in the series with Salmonella typhimurium [5] (1.00 kg/ton hexenal). For the same compound, the effective concentration in [10] is on record as 247 mg/L. In addition, the “fruit quality (in words)” value in the series on pears and apples was “did not affect fruit appearance, color, firmness, soluble solids content or titratable acidity”. The minimum biocidal activity in [11] is 800 µg/mL. In addition, the minimum inhibitory activity in series [11] is 400 µg/mL. Further, the “toxic levels in rats relative to normal intake by humans” value in series [12] is 30 times. In addition, in the series on mold, the “control of mold (in words)” value is listed as “showed promise for control of mold”.

As for `C=CCCCCCCCCC=O` [undecylenic aldehyde], the “ability” value in the series on Salmonella typhimurium [6] was “can replace trans-2-hexenal”.
